Source: ChEMBL document CHEMBL1201862, “PubChem BioAssay data set” (2004)
Activity calls are given as the source filed them.

Columns and labels:
[1] = Dd2 parasite growth inhibition in erythrocytes – SYBR Green, dry powder samples, set 9, dose response (AID 1159568); format: functional, cell-based
[2] = NIH-3T3 fibroblast cytotoxicity, dose response, cytotoxicity control, cell-based, fluorescence, Alamar Blue, secondary assay (AID 2327); format: functional;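 note: NIH-3T3 mouse fibroblasts cultured with fluconazole at 8 µg/mL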
INS1 = test: INS-1E survival protection against cytokine death – cell-based, luminescence, retest, dose response (AID 449756); format: functional; details: Rattus norvegicus;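 note: cell death triggered by IL-1 beta plus TNF-alpha plus IFN-gamma mixture; protective hits raise ATP signal compared with cytokine alone wells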
[3] = fluconazole-exposed Candida albicans growth modulators – fluorescence, retest, confirmation (AID 2467); format: functional, cell-based
Leucine aminopeptidase = biological target: T1, Leucine aminopeptidase (Plasmodium falciparum 3D7, UniProt Q8IL11); test: P. falciparum M17LAP inhibitors, primary screen, biochemical, fluorogenic H-Leu-NHMec substrate, 1536-well (AID 1619); format: functional
T1 sequence (Q8IL11 whole entry): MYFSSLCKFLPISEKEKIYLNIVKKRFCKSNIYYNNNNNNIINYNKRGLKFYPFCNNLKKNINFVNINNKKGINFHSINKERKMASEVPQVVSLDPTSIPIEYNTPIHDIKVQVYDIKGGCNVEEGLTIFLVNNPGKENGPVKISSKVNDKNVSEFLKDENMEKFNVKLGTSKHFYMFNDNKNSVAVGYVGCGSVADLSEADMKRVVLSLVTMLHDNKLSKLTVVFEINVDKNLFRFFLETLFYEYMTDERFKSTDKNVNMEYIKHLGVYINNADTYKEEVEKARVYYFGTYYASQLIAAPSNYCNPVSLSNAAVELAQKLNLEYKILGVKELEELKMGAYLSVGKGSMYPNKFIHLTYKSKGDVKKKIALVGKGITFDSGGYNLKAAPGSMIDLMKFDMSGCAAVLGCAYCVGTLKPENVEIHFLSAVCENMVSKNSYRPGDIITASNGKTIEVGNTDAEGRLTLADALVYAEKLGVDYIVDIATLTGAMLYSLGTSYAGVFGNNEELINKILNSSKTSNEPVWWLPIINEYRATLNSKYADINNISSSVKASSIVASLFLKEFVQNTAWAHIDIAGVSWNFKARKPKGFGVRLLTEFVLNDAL

Fatty acid synthase [4] = biological target: T2, Fatty acid synthase (Homo sapiens, UniProt P49327); test: inhibition of human FAS-TE enzyme activity – biochemical, kinetic fluorescence intensity, dose response (AID 624326); format: functional;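 note: rate of fluorescence rise from hydrolysis of a fluorogenic O-methyl fluorescein ester substrate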
T2 sequence (P49327 whole entry): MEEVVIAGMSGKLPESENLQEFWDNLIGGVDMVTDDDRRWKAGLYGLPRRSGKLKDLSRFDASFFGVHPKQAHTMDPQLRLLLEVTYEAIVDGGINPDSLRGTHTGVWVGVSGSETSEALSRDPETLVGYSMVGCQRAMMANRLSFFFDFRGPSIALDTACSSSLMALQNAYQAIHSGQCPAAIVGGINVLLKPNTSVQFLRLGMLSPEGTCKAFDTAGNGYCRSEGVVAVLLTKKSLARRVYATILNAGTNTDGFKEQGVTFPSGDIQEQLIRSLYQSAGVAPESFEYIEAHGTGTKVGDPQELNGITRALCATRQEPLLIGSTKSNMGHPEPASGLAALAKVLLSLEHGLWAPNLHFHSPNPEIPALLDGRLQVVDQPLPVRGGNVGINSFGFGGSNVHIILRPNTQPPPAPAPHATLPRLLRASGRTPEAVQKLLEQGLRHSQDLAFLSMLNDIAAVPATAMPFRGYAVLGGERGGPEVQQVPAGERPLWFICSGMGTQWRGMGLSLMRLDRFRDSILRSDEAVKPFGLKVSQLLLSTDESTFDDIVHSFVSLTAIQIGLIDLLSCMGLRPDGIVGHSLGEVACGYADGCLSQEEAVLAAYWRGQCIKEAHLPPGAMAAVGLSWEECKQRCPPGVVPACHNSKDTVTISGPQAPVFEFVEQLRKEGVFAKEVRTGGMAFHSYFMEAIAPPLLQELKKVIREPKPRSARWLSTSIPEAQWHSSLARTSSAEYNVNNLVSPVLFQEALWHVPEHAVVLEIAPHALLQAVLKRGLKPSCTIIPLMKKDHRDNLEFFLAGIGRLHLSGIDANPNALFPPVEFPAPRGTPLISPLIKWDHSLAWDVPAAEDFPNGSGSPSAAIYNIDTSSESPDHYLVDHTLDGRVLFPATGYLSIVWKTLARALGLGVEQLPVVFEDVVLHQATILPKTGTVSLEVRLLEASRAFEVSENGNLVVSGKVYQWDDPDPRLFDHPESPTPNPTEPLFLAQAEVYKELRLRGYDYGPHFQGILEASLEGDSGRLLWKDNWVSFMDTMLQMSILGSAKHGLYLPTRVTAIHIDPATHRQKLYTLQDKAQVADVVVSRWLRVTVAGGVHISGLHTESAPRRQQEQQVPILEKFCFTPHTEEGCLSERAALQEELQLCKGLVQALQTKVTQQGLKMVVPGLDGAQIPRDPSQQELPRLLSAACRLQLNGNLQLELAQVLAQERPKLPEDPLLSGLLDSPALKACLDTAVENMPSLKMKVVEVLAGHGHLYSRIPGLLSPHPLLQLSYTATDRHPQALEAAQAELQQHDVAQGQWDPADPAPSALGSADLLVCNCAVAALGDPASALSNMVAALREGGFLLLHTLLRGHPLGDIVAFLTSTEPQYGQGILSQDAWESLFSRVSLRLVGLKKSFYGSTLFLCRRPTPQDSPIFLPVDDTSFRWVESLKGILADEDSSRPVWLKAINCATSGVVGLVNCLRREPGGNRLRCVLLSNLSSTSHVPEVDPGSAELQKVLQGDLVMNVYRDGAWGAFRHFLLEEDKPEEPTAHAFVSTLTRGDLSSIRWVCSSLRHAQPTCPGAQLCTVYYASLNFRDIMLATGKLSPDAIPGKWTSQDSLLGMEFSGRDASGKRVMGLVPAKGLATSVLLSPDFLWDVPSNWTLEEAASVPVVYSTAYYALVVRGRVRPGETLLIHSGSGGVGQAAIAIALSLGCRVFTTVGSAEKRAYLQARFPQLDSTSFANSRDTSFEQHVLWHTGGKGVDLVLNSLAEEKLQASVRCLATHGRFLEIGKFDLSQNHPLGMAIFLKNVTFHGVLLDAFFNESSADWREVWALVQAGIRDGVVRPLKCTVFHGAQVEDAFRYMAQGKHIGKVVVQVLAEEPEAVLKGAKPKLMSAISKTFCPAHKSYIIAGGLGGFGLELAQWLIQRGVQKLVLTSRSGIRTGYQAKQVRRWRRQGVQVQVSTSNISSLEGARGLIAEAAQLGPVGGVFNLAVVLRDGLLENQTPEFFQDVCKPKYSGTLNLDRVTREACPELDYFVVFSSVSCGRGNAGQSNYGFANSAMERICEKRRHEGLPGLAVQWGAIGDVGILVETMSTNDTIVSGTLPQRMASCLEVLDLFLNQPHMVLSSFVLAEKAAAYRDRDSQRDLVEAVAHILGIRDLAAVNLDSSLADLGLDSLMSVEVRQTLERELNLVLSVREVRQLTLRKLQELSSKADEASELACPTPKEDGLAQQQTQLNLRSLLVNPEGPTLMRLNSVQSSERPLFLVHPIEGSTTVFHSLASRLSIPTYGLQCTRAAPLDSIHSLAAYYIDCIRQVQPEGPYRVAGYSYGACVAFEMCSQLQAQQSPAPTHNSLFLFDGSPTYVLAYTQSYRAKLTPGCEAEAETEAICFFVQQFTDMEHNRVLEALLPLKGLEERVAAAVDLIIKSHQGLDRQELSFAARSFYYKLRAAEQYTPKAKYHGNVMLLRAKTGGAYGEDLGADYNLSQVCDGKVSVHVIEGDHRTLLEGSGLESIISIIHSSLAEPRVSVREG

Fatty acid synthase [5] = biological target: T2, Fatty acid synthase; test: inhibition of human FAS-TE enzyme activity – biochemical, endpoint fluorescence intensity, uHTS hits, dose response (AID 624327); format: functional;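 note: fluorescence from hydrolysis of an O-methyl fluorescein acyl ester substrate by the enzyme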
[6] = biological target: T3, RNA-binding protein pos-1 (Caenorhabditis elegans, UniProt G5EF15); test: disruptors of C. elegans POS-1 RNA interaction – biochemical, fluorescence polarization, dose response (AID 1964);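 note: purified POS-1 fused to maltose binding protein made in E. coli; potency of compounds blocking POS-1 binding to fluorescent RNA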
T3 sequence (G5EF15 whole entry): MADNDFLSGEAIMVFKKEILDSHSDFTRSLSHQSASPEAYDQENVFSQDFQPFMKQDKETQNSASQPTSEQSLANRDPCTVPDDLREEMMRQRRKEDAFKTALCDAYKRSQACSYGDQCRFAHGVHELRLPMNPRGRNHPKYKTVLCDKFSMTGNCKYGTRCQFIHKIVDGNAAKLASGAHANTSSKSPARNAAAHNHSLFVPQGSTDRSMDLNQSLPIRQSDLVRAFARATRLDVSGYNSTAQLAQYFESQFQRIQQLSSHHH

[7] = biological target: T4, Zinc finger protein mex-5 (Caenorhabditis elegans, UniProt Q9XUB2); test: potency of MEX-5 RNA-binding blockers – biochemical, C. elegans, fluorescence polarization, dose response (AID 1960)
T4 sequence (Q9XUB2 whole entry): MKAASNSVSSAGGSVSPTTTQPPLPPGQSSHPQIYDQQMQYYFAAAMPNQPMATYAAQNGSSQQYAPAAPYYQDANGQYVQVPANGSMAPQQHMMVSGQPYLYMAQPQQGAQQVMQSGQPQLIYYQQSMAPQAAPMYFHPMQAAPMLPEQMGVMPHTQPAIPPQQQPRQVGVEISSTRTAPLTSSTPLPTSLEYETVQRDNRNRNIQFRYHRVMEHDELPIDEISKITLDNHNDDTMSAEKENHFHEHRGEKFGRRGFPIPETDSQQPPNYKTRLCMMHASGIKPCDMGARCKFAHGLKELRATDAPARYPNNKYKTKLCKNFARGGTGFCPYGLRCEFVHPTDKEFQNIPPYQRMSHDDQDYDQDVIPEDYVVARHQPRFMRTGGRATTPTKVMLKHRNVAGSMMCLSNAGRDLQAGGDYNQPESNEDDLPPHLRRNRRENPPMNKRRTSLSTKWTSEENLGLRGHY

[8] = Luminescence Cell-Based Dose Confirmation HTS to Identify Inhibitors of Platelet Dense Granule Release. [Related pubchem assays: 1663 (Primary HTS), 1678 (Summary of Project)]; format: functional
BJ [9] = test: BJ-TERT-LT-ST fibroblast viability loss – cell-based, RAS-independent, luminescence, dose response (AID 1935); format: functional; details: Homo sapiens;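 note: BJ fibroblasts immortalized with TERT plus LT and ST oncogenes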
[10] = biological target: Luciferin 4-monooxygenase (Photinus pyralis, UniProt P08659); test: inhibition of purified Photinus pyralis luciferase – biochemical, luminescence, dose response (AID 1891)
Sequence of Luciferin 4-monooxygenase (P08659 whole entry): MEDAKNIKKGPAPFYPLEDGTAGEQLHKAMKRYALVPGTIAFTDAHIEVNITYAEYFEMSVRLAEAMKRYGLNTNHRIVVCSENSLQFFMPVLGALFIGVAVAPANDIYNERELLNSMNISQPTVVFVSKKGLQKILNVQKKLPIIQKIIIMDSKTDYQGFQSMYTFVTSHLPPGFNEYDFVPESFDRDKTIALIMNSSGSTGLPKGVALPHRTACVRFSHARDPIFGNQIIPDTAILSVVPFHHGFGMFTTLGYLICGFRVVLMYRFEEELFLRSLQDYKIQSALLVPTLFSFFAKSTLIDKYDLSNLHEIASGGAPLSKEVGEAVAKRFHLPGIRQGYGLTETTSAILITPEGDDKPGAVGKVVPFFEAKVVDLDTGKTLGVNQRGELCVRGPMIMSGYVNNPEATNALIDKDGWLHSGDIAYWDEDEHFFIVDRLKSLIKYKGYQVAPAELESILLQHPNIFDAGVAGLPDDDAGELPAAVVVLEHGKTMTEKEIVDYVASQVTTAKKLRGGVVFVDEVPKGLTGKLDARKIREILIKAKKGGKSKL

BJ [11] = test: BJ-TERT fibroblast viability loss – cell-based, RAS-independent, luminescence, dose response (AID 1933); format: functional; details: Homo sapiens
[12] = DRD fibroblast viability loss – cell-based, non-viral oncogenic, luminescence, dose response (AID 1934); format: functional; details: Homo sapiens
[13] = Luminescence Cell-Based Dose Confirmation HTS to Identify Activators of 5'UTR Stem-Loop Driven Alpha-Synuclein mRNA Translation in H4 Neuroglioblastoma Cells. [Related pubchem assays: 1829 (Project Summary), 1814 (Primary HTS)]; format: functional
[14] = Luminescence Cell-Based Dose Response HTS to Identify Activators of Luciferase Translation or Activity in H4 […] Cells. [Related pubchem assays: 1829 (Project Summary), 1814 (Primary HTS)]; format: functional
H4 = test: Luminescence Cell-Based Dose Response HTS to Identify Activators of 5'UTR Stem-Loop Driven Prion Protein mRNA Translation in H4 Neuroglioblastoma Cells. [Related pubchem assays: 1829 (Project Summary), 1814 (Primary HTS)]; format: functional; details: Homo sapiens

With `COc1ccc2c3c([nH]c2c1)[C@H](CO)N(C(C)=O)CC31CCN(C(=O)Nc2ccc(F)cc2F)CC1` the AC50 [1] was 0.548 µM (active).

With `C=CCN1C(=O)N/C(=C/c2ccc(N3CCOCC3)o2)C1=O` the EC50 [2] was 20 µM (active), the AC50 (INS1) was > 260 µM (inactive) and the EC50 [3] was 2.15 µM (active).

With `CSc1nnc(-c2ccccc2/N=C/c2c(C)nn(-c3ccccc3)c2O)c(O)n1` the IC50 (Leucine aminopeptidase) was 48.6 µM (active).

In the case of `CCOC(=O)c1cccc(NC(=O)CSc2nc(N)cc(N)n2)c1`, the IC50 (Leucine aminopeptidase) is reported as 13.8 µM (active).

In the case of `CN1CCc2nc(SCc3ccccc3Br)c(C#N)cc2C1`, the IC50 (Fatty acid synthase [4]) is reported as 6.01 µM (active) and the IC50 (Fatty acid synthase [5]) is reported as 7.9 µM (active).

For `CC1=NN(C(N)=S)C(=O)C1N=Nc1ccc(S(N)(=O)=O)cc1` (configuration not stated), the EC50 [6] was 19.7 µM (active) and the EC50 [7] was 8.86 µM (active).

For `C/N=C1\S/C(=C\c2cn(CC(=O)OC)c3ccccc23)C(=O)N1C`, the EC50 [6] was > 300 µM (not active) and the EC50 [7] was > 300 µM (not active).

In the case of `Cc1ccc(N2C(=O)c3ccccc3C2O)nc1` (configuration not stated), the EC50 [8] is reported as 1.74 µM (active), the EC50 (BJ [9]) is reported as > 75 µM (inconclusive) and the EC50 [10] is reported as 6.56 µM (active). For the same molecule, the EC50 (BJ [11]) was 8.32 µM (active) and the EC50 [12] was 7.47 µM (inconclusive).

In the case of `C[C@@H]1CN([C@@H](C)CO)C(=O)c2ccccc2-c2ccccc2CO[C@@H]1CN(C)S(=O)(=O)Cc1ccccc1`, the AC50 [1] is reported as 21.9 µM (active).

For `CCc1cc2c(=O)oc(-c3ccccc3F)nc2s1`, the IC50 (Fatty acid synthase [4]) was 1.62 µM (active) and the IC50 (Fatty acid synthase [5]) was 2.48 µM (active).

With `COc1ccc(/C=C(\NC(=O)c2ccc([N+](=O)[O-])cc2)C(=O)N2CCOCC2)cc1` the IC50 (Fatty acid synthase [4]) was 0.848 µM (active) and the IC50 (Fatty acid synthase [5]) was 1.34 µM (active).

With `COc1ccc(NC(=O)CSc2c(C)nn(-c3nnc(C)c(=O)[nH]3)c2C)cc1` the IC50 (Leucine aminopeptidase) was 83.7 µM (active).

For `COC(=O)c1cc(C(=O)Nc2nnc(CC(C)(C)C)s2)cc([N+](=O)[O-])c1`, the IC50 (Fatty acid synthase [4]) was 11.2 µM (active) and the IC50 (Fatty acid synthase [5]) was 12.7 µM (active).

For `O=C(c1cc2cc([N+](=O)[O-])ccc2oc1=O)N1CCN(C2CCCCC2)CC1`, the IC50 (Fatty acid synthase [4]) was 9.68 µM (active) and the IC50 (Fatty acid synthase [5]) was 13.9 µM (active).

In the case of `CC(=O)Nc1cccc(Oc2nc(-c3ccccn3)nc3ccccc23)c1`, the EC50 [6] is reported as 79.3 µM (active), the EC50 [13] is reported as 92.7 µM (active) and the EC50 [14] is reported as 11.8 µM (active). For the same molecule, the EC50 (H4) was 7.56 µM (active) and the EC50 [7] was 5.2 µM (active).
